Results taken from patent publication US11524021B2, “Use of ginsenoside M1 for manufacturing medicament for treating oral cancer” (priority 2018, dated 2022).

Experiments:
[1] = system: human oral cancer cells SAS xenografts; experiment: Tumor growth in human oral cancer SAS xenograft mice; assay type: in vivo, BALB/c nude (nu/nu) mice; conditions: 5 successive days
Description: (§1) FIGS. 6A-6C show oral administration of ginsenoside M1 reduced human oral cancer growth in mice. Human oral cancer cell line SAS cells Xenografts mice with tumor size around 40˜60 mm^3 were given a daily oral administration of either ginsenoside M1 (30-90 mg/kg) or vehicle for 5 successive days. (FIG. 6A) The tumor volume was determined by measurement of the length (L) and width (W) of the tumor and calculated as tumor volume (mm3)=(L×W^2)/2. (FIG. 6B) The tumor weight was measured after the mice were scarified. (FIG. 6C) The body weight of mice was recorded. The data were expressed as mean±SD; n=6. ** and *** indicate a significant difference at the level of p<0.01 and p<0.001, respectively, compared to vehicle-control mice. (One-way ANOVA with Dunnett's multiple comparisons test).
(§2) FIGS. 7A-7C show subcutaneous (SC) injection of ginsenoside M1 reduced human oral cancer growth in mice. Human oral cancer cell line SAS cells Xenografts mice with tumor size around 40˜60 mm^3 were given a daily SC injection of either ginsenoside M1 (20 mg/kg) or vehicle for 5 successive days. (FIG. 7A) The tumor volume was determined by measurement of the length (L) and width (W) of the tumor and calculated as tumor volume (mm3)=(L×W^2)/2. (FIG. 7B) The tumor weight was measured after the mice were scarified. (FIG. 7C) The body weight of mice was recorded. The data were expressed as mean±SD; n=6. ** indicates a significant difference at the level of p<0.01, compared to vehicle-control mice. (One-way ANOVA with Dunnett's multiple comparisons test).
To evaluate the anti-cancer activity of ginsenoside M1 in vivo, human oral cancer xenografts were used. Six-week-old male congenital athymic BALB/c nude (nu/nu) mice were purchased from BioLASCO Taiwan Co., Ltd (Ilan, Taiwan), and housed in a room under controlled temperature (23±3° C.) and relative humidity (50±5%). Animal experiments were performed with the approval of the Institutional Animal Care and Use Committee of the National Ilan University (approval number: No. 106-13) according to the NIH Guide for the Care and Use of Laboratory Animals. Xenografts mice were established by subcutaneous (SC) injection of 2×10^6 human oral cancer cells SAS (in 75 μl PBS+75 μl Matrigel) on the backs of the nude mice. After the tumor has reached about 40˜60 mm^3 in size, the mice were randomized into six groups (six mice each): (1) oral vehicle control; (2) oral 30 mg/kg ginsenoside M1; (3) oral 60 mg/kg ginsenoside M1; (4) oral 90 mg/kg ginsenoside M1; (5) SC vehicle control; (6) SC 20 mg/kg ginsenoside M1. The mice were given a daily oral administration or SC injection of either vehicle or ginsenoside M1 for 5 successive days. The mice were scarified at 24 h after received the last dose of ginsenoside M1 or vehicle. The tumor volume (TV) was determined by measurement of the length (L) and width (W) of the tumor. The TV on day n (TVn) was calculated as TV (mm3)=(L×W^2)/2. The relative tumor volume on day n (RTVn) versus day 0 was expressed according to the following formula: RTVn=TVn/TV0. […] The data were expressed as mean±SD; n=6. ** and *** indicate a significant difference at the level of p<0.01 and p<0.001, respectively, compared to vehicle-control mice. (One-way ANOVA with Dunnett's multiple comparisons test).

[2] = Body weight of SAS xenograft mice; assay type: in vivo, BALB/c nude (nu/nu) mice; conditions: 5 successive days
Description: as §1, with “(One-way ANOVA with Dunnett's multiple comparisons test).” left out
as §2, with “Human oral cancer cell line SAS cells Xenografts mice with tumor size around 40˜60 mm^3 were given a daily SC injection of either ginsenoside M1 (20 mg/kg) or vehicle for 5 successive days.” left out, “(One-way ANOVA with Dunnett's multiple comparisons test).” left out
To evaluate the anti-cancer activity of ginsenoside M1 in vivo, human oral cancer xenografts were used. […] The TV on day n (TVn) was calculated as TV (mm3)=(L×W^2)/2. […]

CC(C)=CCC[C@](C)(O[C@@H]1OC(CO)[C@@H](O)[C@@H](O)C1O)[C@H]1CC[C@]2(C)C1[C@H](O)CC1[C@@]3(C)CC[C@H](O)C(C)(C)C3CC[C@]12C (stereo partly drawn) [ginsenoside M1, 20-O-β-D-glucopyranosyl-20(S)-protopanaxadiol]
tumor size compared to vehicle control group ([1]; SC injection 20 mg/kg daily): significantly reduced
tumor weight compared to vehicle control group ([1]; SC injection 20 mg/kg daily): significantly reduced
tumor size compared to vehicle control group ([1]; oral 30 mg/kg daily): did not significant reduce
tumor weight compared to vehicle control group ([1]; oral 30 mg/kg daily): did not significant reduce
tumor size compared to vehicle control group ([1]; oral 60 mg/kg daily): did not significant reduce
tumor weight compared to vehicle control group ([1]; oral 60 mg/kg daily): did not significant reduce
tumor size compared to vehicle control group ([1]; oral 90 mg/kg daily): significantly reduced
body weight of mice ([2]; SC injection 20 mg/kg daily): did not significantly affect
body weight of mice ([2]; oral 30-90 mg/kg daily): did not significantly affect
